# Measurements taken from patent US4178442A, “Novel cinnamoyles piperazines and homopiperazines, the method of preparing them and their application in therapeutics” (Delalande S. A., priority 1977, dated 1979).
# Counter-ions that a name gives are not always drawn. Like-named read-outs stand apart in the source and are kept apart here.
# Assays:
# anaesthetized dog = test: Antiangorous activity on anaesthetized dog: consumption of oxygen in the left ventricule and cardiac effort (KATZ's index); format: in vivo; conditions: for inhibition in vivo at […] / inhibition in vivo at 0.625 mg/kg / inhibition in vivo at 0.6 mg/kg / inhibition in vivo at 2.3 mg/kg / inhibition in vivo at 2.5 mg/kg / inhibition in vivo at 1.25 mg/kg: Canis lupus familiaris, iv; for inhibition in vivo at […]: 0.15 mg/kg i.v. slow perfusion
# In short: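 Katz index taken as mean arterial pressure multiplied by ECG (D2) heart rate, and myocardial O2 use as coronary sinus flow via modified Morawitz cannula times coronary arteriovenous O2 difference. Animals: pentobarbital-anaesthetized dogs (30 mg/kg i.v.), test compounds infused slowly intravenously.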
# in vivo = conditions: for mortality: read-out: Toxicity (Mortality); for LD50: read-out: Toxicity: LD50
# Excerpt: *LD50 or percentage of mortality which is given between brackets
# [1] = 0.625 mg/kg i.v. slow perfusion
# [2] = 0.625 mg/kg i.v. slow perfusion, read-out: Diminution in consumption of O2
# [3] = 0.625 mg/kg i.v. slow perfusion, read-out: Diminution in the cardiac effort (IK)
# [4] = 2.5 mg/kg i.v. slow perfusion, read-out: Diminution in consumption of O2
# [5] = 2.5 mg/kg i.v. slow perfusion, read-out: Diminution in the cardiac effort (IK)
compound,measurement,setting,value
COc1cc(/C=C/C(=O)N2CCN(CC(O)COc3ccc(NC(=O)Nc4ccccc4)c4c3OCCO4)CC2)cc(OC)c1OC (stereo not shown) [770 085],inhibition in vivo at […],anaesthetized dog; read-out: Diminution in consumption of O2,44%
same,inhibition in vivo at […],anaesthetized dog; read-out: Diminution in the cardiac effort (IK),14%
same,mortality,"in vivo; po, p.o.: 1855 mg/kg",0%
COc1cc(/C=C/C(=O)N2CCN(CC(O)COc3ccc(NC(=O)C4CCCCC4)c4c3OCCO4)CC2)cc(OC)c1OC (stereo not shown) [770 533],Diminution in consumption of O2: in time,anaesthetized dog; [1],25 min
same,Diminution in the cardiac effort (IK): in time,anaesthetized dog; [1],25 min
same,inhibition in vivo at 0.625 mg/kg,anaesthetized dog; [2],30%
same,inhibition in vivo at 0.625 mg/kg,anaesthetized dog; [3],28%
same,mortality,"in vivo; po, p.o.: 2000 mg/kg",10%
CCCCC(=O)Nc1ccc(OCC(O)CN2CCN(C(=O)/C=C/c3cc(OC)c(OC)c(OC)c3)CC2)c2c1OCCO2 (stereo not shown) [770 601],Diminution in consumption of O2: in time,anaesthetized dog; [1],30 min
same,Diminution in the cardiac effort (IK): in time,anaesthetized dog; [1],30 min
same,inhibition in vivo at 0.625 mg/kg,anaesthetized dog; [2],69%
same,inhibition in vivo at 0.625 mg/kg,anaesthetized dog; [3],25%
same,mortality,"in vivo; po, p.o.: 2000 mg/kg",22%
CCOC(=O)c1ccc(OCC(O)CN2CCN(C(=O)/C=C/c3cc(OC)c(OC)c(OC)c3)CC2)c2c1OCCO2 (stereo not shown) [760 700],Diminution in consumption of O2: in time,anaesthetized dog; 0.6 mg/kg i.v. slow perfusion,45 min
same,Diminution in the cardiac effort (IK): in time,anaesthetized dog; 0.6 mg/kg i.v. slow perfusion,60 min
same,inhibition in vivo at 0.6 mg/kg,"anaesthetized dog; 0.6 mg/kg i.v. slow perfusion, read-out: Diminution in consumption of O2",59%
same,inhibition in vivo at 0.6 mg/kg,"anaesthetized dog; 0.6 mg/kg i.v. slow perfusion, read-out: Diminution in the cardiac effort (IK)",47%
same,mortality,"in vivo; iv, 367 mg/kg i.v.",0%
COc1cc(/C=C/C(=O)N2CCN(CC(O)CSc3ccccc3)CC2)cc(OC)c1OC (stereo not shown) [770 060],Diminution in consumption of O2: in time,anaesthetized dog; 2.3 mg/kg i.v. slow perfusion,23 min
same,Diminution in the cardiac effort (IK): in time,anaesthetized dog; 2.3 mg/kg i.v. slow perfusion,30 min
same,inhibition in vivo at 2.3 mg/kg,"anaesthetized dog; 2.3 mg/kg i.v. slow perfusion, read-out: Diminution in consumption of O2",58%
same,inhibition in vivo at 2.3 mg/kg,"anaesthetized dog; 2.3 mg/kg i.v. slow perfusion, read-out: Diminution in the cardiac effort (IK)",35%
same,LD50,in vivo; iv,195 mg/kg
CNC(=O)Nc1ccc(OCC(O)CN2CCN(C(=O)/C=C/c3cc(OC)c(OC)c(OC)c3)CC2)c(OC)c1OC (stereo not shown) [770 992],Diminution in consumption of O2: in time,anaesthetized dog; 2.5 mg/kg i.v. slow perfusion,40 min
same,Diminution in the cardiac effort (IK): in time,anaesthetized dog; 2.5 mg/kg i.v. slow perfusion,30 min
same,inhibition in vivo at 2.5 mg/kg,anaesthetized dog; [4],77%
same,inhibition in vivo at 2.5 mg/kg,anaesthetized dog; [5],36%
same,mortality,"in vivo; iv, 400 mg/kg i.v.",0%
"COc1cc(/C=C/C(=O)N2CCN(CC(O)COc3ccc(C(C)=O)c4c3OCCO4)CC2)cc(OC)c1O (stereo not shown) [770 274, 1-[3-(4-acetyl-2,3-ethylenedioxy)phenoxy-2-hydroxy]propyl-4-(3,5-dimethoxy-4-hydroxycinnamoyl)piperazine oxalate]",Diminution in consumption of O2: in time,anaesthetized dog; 2.5 mg/kg i.v. slow perfusion,30 min
same,Diminution in the cardiac effort (IK): in time,anaesthetized dog; 2.5 mg/kg i.v. slow perfusion,15 min
same,inhibition in vivo at 2.5 mg/kg,anaesthetized dog; [4],41%
same,inhibition in vivo at 2.5 mg/kg,anaesthetized dog; [5],10%
same,mortality,"in vivo; iv, 336 mg/kg i.v.",30%
COc1cc(/C=C/C(=O)N2CCN(CC(O)COc3ccc(NC(C)=O)cc3)CC2)cc(OC)c1OC (stereo not shown) [760 542],Diminution in consumption of O2: in time,anaesthetized dog; 2.5 mg/kg i.v. slow perfusion,45 min
same,Diminution in the cardiac effort (IK): in time,anaesthetized dog; 2.5 mg/kg i.v. slow perfusion,50 min
same,inhibition in vivo at 2.5 mg/kg,anaesthetized dog; [4],64%
same,inhibition in vivo at 2.5 mg/kg,anaesthetized dog; [5],32%
same,mortality,"in vivo; iv, 400 mg/kg i.v.",0%
"COc1cc(/C=C/C(=O)N2CCN(CCCOc3ccc(C(C)=O)c4c3OCCO4)CC2)cc(OC)c1OC [760 939, 1-[3-(4-acetyl-2,3-ethylenedioxy)phenoxy]-propyl-4-(3,4,5-trimethoxycinnamoyl)piperazine]",Diminution in consumption of O2: in time,anaesthetized dog; 1.25 mg/kg i.v. slow perfusion,30 min
same,Diminution in the cardiac effort (IK): in time,anaesthetized dog; 1.25 mg/kg i.v. slow perfusion,23 min
same,inhibition in vivo at 1.25 mg/kg,"anaesthetized dog; 1.25 mg/kg i.v. slow perfusion, read-out: Diminution in consumption of O2",27%
same,inhibition in vivo at 1.25 mg/kg,"anaesthetized dog; 1.25 mg/kg i.v. slow perfusion, read-out: Diminution in the cardiac effort (IK)",11%
same,mortality,"in vivo; iv, 400 mg/kg i.v.",20%
COc1cc(/C=C/C(=O)N2CCCN(CC(O)COc3ccc(C(C)=O)cc3)CC2)cc(OC)c1OC (stereo not shown) [780 415],Diminution in consumption of O2: in time,anaesthetized dog; 2.5 mg/kg i.v. slow perfusion,30 min
same,Diminution in the cardiac effort (IK): in time,anaesthetized dog; 2.5 mg/kg i.v. slow perfusion,30 min
same,inhibition in vivo at 2.5 mg/kg,anaesthetized dog; [4],29%
same,inhibition in vivo at 2.5 mg/kg,anaesthetized dog; [5],10%
same,LD50,in vivo; iv,305 mg/kg
COc1cc(/C=C/C(=O)N2CCN(CC(O)COc3ccc(CC#N)cc3)CC2)cc(OC)c1OC (stereo not shown) [770 488],Diminution in consumption of O2: in time,anaesthetized dog; 2.5 mg/kg i.v. slow perfusion,30 min
same,Diminution in the cardiac effort (IK): in time,anaesthetized dog; 2.5 mg/kg i.v. slow perfusion,15 min
same,inhibition in vivo at 2.5 mg/kg,anaesthetized dog; [4],78%
same,inhibition in vivo at 2.5 mg/kg,anaesthetized dog; [5],17%
same,LD50,in vivo; iv,225 mg/kg
CCC(=O)Nc1ccc(OCC(O)CN2CCN(C(=O)/C=C/c3cc(OC)c(OC)c(OC)c3)CC2)c2c1OCCO2 (stereo not shown) [770 545],Diminution in consumption of O2: in time,anaesthetized dog; [1],30 min
same,Diminution in the cardiac effort (IK): in time,anaesthetized dog; [1],15 min
same,inhibition in vivo at 0.625 mg/kg,anaesthetized dog; [2],61%
same,inhibition in vivo at 0.625 mg/kg,anaesthetized dog; [3],16%
same,mortality,"in vivo; iv, 400 mg/kg i.v.",40%
